Legend:
Assay in all cases: relative viability (nuclei count vs DMSO), 5 days (fraction); higher = more cells survive
Lapatinib + Pemetrexed = compound: CS(=O)(=O)CCNCc1ccc(-c2ccc3ncnc(Nc4ccc(OCc5cccc(F)c5)c(Cl)c4)c3c2)o1 [Lapatinib] + Nc1nc2[nH]cc(CCc3ccc(C(=O)N[C@@H](CCC(=O)O)C(=O)O)cc3)c2c(=O)[nH]1 [Pemetrexed] (partner 0.2 µM)
Procedure, shortened: (§1)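 After 5 days of treatment, lung cancer cells in 1536-well plates were fixed and stained in a single step (final 0.05% Triton X-100, 1% formaldehyde, 1 ug/ml Hoechst) and their nuclei counted on 4× images. Treatment had been applied by pin tool the day after seeding as one drug alone or as a fixed anchor-drug dose with five library-drug doses (not always all listed) in √10 steps. Relative viability is the nuclei count of treated wells divided by that of vehicle wells, and values are medians of duplicate plates.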

Wnt-C59 + Linsitinib = compound: CC1=NC=CC(=C1)C2=CC=C(C=C2)CC(=O)NC3=CC=C(C=C3)C4=CN=CC=C4 [Wnt-C59] + C[C@]1(O)C[C@@H](c2nc(-c3ccc4ccc(-c5ccccc5)nc4c3)c3c(N)nccn32)C1 [Linsitinib] (partner 1 µM)
Procedure, shortened: as §1

Wnt-C59 + Bortezomib = compound: CC1=NC=CC(=C1)C2=CC=C(C=C2)CC(=O)NC3=CC=C(C=C3)C4=CN=CC=C4 [Wnt-C59] + CC(C)C[C@H](NC(=O)[C@H](Cc1ccccc1)NC(=O)c1cnccn1)B(O)O [Bortezomib] (partner 0.002 µM)
Procedure, shortened: as §1

Wnt-C59 + Pictilisib = compound: CC1=NC=CC(=C1)C2=CC=C(C=C2)CC(=O)NC3=CC=C(C=C3)C4=CN=CC=C4 [Wnt-C59] + CS(=O)(=O)N1CCN(Cc2cc3nc(-c4cccc5[nH]ncc45)nc(N4CCOCC4)c3s2)CC1 [Pictilisib] (partner 1 µM)
Procedure, shortened: as §1

Row | Cell Line | relative viability (Lapatinib + Pemetrexed; first compound 0.02 µM) | relative viability (Lapatinib + Pemetrexed; first compound 0.06325 µM) | relative viability (Lapatinib + Pemetrexed; first compound 0.2 µM) | relative viability (Lapatinib + Pemetrexed; first compound 0.6325 µM) | relative viability (Lapatinib + Pemetrexed; first compound 2 µM) | relative viability (Wnt-C59 + Linsitinib; first compound 0.001 µM) | relative viability (Wnt-C59 + Linsitinib; first compound 0.01 µM) | relative viability (Wnt-C59 + Linsitinib; first compound 0.03162 µM) | relative viability (Wnt-C59 + Linsitinib; first compound 0.1 µM) | relative viability (Wnt-C59 + Bortezomib; first compound 0.001 µM) | relative viability (Wnt-C59 + Bortezomib; first compound 0.01 µM) | relative viability (Wnt-C59 + Bortezomib; first compound 0.03162 µM) | relative viability (Wnt-C59 + Bortezomib; first compound 0.1 µM) | relative viability (Wnt-C59 + Pictilisib; first compound 0.001 µM) | relative viability (Wnt-C59 + Pictilisib; first compound 0.01 µM) | relative viability (Wnt-C59 + Pictilisib; first compound 0.03162 µM) | relative viability (Wnt-C59 + Pictilisib; first compound 0.1 µM)
1 | LOU-NH91 | 0.377 | 0.41 | 0.39 | 0.415 | 0.458 | 1.07 | 0.748 | 0.854 | 0.899 | 0.492 | 0.583 | 0.465 | 0.53 | 0.541 | 0.577 | 0.508 | 0.565
2 | NCI-H441 | 0.305 | – | 0.248 | 0.231 | 0.248 | 0.496 | 0.407 | 0.667 | 0.575 | 0.364 | 0.236 | 0.593 | 0.682 | 0.557 | 0.428 | 0.592 | 0.573
3 | NCI-H661 | 0.872 | 0.773 | 0.834 | 0.736 | 0.756 | 0.581 | 0.621 | 0.548 | 0.723 | 0.616 | 0.758 | 0.903 | 0.805 | 0.414 | 0.441 | 0.391 | 0.442
4 | NCI-H1355 | 0.833 | 0.93 | 0.948 | 1.06 | 0.889 | 0.875 | 0.779 | 0.881 | 0.673 | 1.18 | 1.05 | 1.23 | 1.1 | 0.486 | 0.325 | 0.38 | 0.393
